Test results: the NIST ThermoML archive (doi:10.1016/j.tca.2015.03.027)
Numbers after ± are expanded uncertainties.

What was measured:
[1] = Crystal; DTA
[2] = Molar enthalpy of transition or fusion; conditions: Crystal; DSC
[3] = molar heat capacity at constant pressure; conditions: 290 K; 101.33 kPa; Crystal; Small sample (50 mg) DSC
[4] = molar heat capacity at constant pressure; wn = mass fraction of the nth substance listed; conditions: 320 K; 96 kPa; Liquid; Small sample (50 mg) DSC; w1 = 0.649

Structure (SMILES)	Normal melting temperature [1]	Molar enthalpy of transition or fusion [2]	molar heat capacity at constant pressure [3]	molar heat capacity at constant pressure [4]
O.O.O.O.O.O.[Br-].[Br-].[Ca+2] [calcium bromide hexahydrate]	34.00 ± 2 °C	10.5 ± 0.335 kcal/mol	363.41 ± 37 J/K/mol	–
[Br-].[Br-].[Ca+2] [calcium bromide] + O	–	–	–	75.67 ± 7.5 J/K/mol
